Results from article PMC8966664 (Frontiers in Pharmacology, 2022).

Tests used:
pyrrole-protein adducts = assay: Formation of pyrrole-protein adducts in liver and serum/plasma of RTS-treated rats; assay type: in vivo, Sprague Dawley rats
Description: EX and GA were dissolved in distilled water at 37°C for oral administration with the dosage of EX and GA as 500 mg/kg and 50 mg/kg. […] RTS was given following the last dose of distilled water/GA/EX. Detailed dosage regimens are described in Supplementary Figure S2. All rats were sacrificed at 48 h after the last dosing. Serum and liver samples were collected and stored at −80°C until use.
The pyrrole-protein adducts were measured according to our previously developed method ([Lin et al., 2011]; [Ruan et al., 2014]). Briefly, 50 mg liver or 100 µL serum/plasma was mixed with acetone and centrifuged at 900 x g for 10 min. The precipitated protein was treated with silver nitrate (20 mg/ml) in ethanol containing 5% trifluoroacetic acid to release pyrrole moiety from the pyrrole-protein adducts. After centrifugation, an aliquot of the supernatant was incubated with 4-dimethylaminobenzaldehyde (20 mg/ml) at 56°C for 10 min. The mixture was filtered and subjected to LC-MS/MS analysis. 7,9-diGS-DHP was used as a standard with a concentration ranging from 0.2 to 2000 nM and underwent the same preparation process to construct a calibration curve. […] After centrifuging at 20,000 x g for 30 min, the supernatants were collected and analyzed by LC-MS/MS according to our previously developed methods ([Ma et al., 2019]; [He et al., 2021a]; [Ma et al., 2021]).
The LC-MS/MS analysis was performed on an Agilent 6460 Triple Quadrupole LC/MS System using a Waters Acquity BEH C18 column (2.1 × 100 mm, […]). For the detection of pyrrole-protein adducts, the mobile phase of water containing 0.1% formic acid (A) and acetonitrile containing 0.1% formic acid (B) was used with a gradient elution as follows: 0–5 min, 35–95% B; 5.5–6 min, 95–35% B. The flow rate was 0.3 ml/min. The injection volume was 3 μL. […] The injection volume was 5 µL. The mass spectrometer was operated in multiple reactions monitoring for data acquisition.

rat CYP3A1 = assay: Enzymatic kinetic study with nifedipine in rat liver microsomes; assay type: biochemical
Description: The mixture was pre-incubated at 37°C for 15 min. […] The supernatant was filtered through a 0.22 µm membrane filter before the LC-MS/MS analysis.
Data are expressed as mean ± SD. The Student’s t test was used for the comparison between two groups. The one-way ANOVA followed with a post hoc Bonferroni’s multiple comparison test was used for the comparison among multiple groups. Toxicokinetic parameters were calculated by noncompartmental methods using WinNonlin version 4.0 (Pharsight, Mountain View, CA, United States). The enzyme kinetic parameters were estimated from the best fit line using least-squares linear regression of the inverse substrate concentration versus the inverse velocity (Lineweaver-Burk plots), and the mean values were used to calculate the Km and Vmax. […] The statistical significance was set as ^* p < 0.05, ^** p < 0.01 or ^*** p < 0.001.

[1] = multiple treatment (EX 500 mg/kg or GA 50 mg/kg) + RTS
[2] = single treatment (EX 500 mg/kg or GA 50 mg/kg) + RTS

In the case of `CC1(C)[C@@H](O)CC[C@]2(C)[C@H]3C(=O)C=C4[C@@H]5C[C@@](C)(C(=O)O)CC[C@]5(C)CC[C@@]4(C)[C@]3(C)CC[C@@H]12` [GA, 18β-glycyrrhetinic acid], the “reduction of pyrrole-protein adducts in liver” value (pyrrole-protein adducts; [1]) is reported as 32.5%, the “reduction of pyrrole-protein adducts in plasma” value (pyrrole-protein adducts; [1]) is reported as 56.5% and the “reduction of pyrrole-protein adducts in liver” value (pyrrole-protein adducts; [2]) is reported as 30.3%. For the same compound, the “reduction of pyrrole-protein adducts in plasma” value (pyrrole-protein adducts; [2]) was 50.8%, the “Lineweaver-Burk Slope” value (rat CYP3A1; GA 10 µM) was 1.424±0.040 and the “Lineweaver-Burk Y-intercept when X=0.0” value (rat CYP3A1; GA 10 µM) was 0.174±0.017. The “Vmax of nifedipine metabolism” value (rat CYP3A1; GA 10 µM) was 6.326±0.079 nmol/min/mg protein, the “Lineweaver-Burk Slope” value (rat CYP3A1; GA 25 µM) was 2.671±0.041 and the “Lineweaver-Burk Y-intercept when X=0.0” value (rat CYP3A1; GA 25 µM) was 0.144±0.018. The “Vmax of nifedipine metabolism” value (rat CYP3A1; GA 25 µM) was 6.586±0.083 nmol/min/mg protein, the “Lineweaver-Burk Slope” value (rat CYP3A1; GA 50 µM) was 4.916±0.064 and the “Lineweaver-Burk Y-intercept when X=0.0” value (rat CYP3A1; GA 50 µM) was 0.137±0.028. The “Vmax of nifedipine metabolism” value (rat CYP3A1; GA 50 µM) was 6.473±0.146 nmol/min/mg protein.
